Source: PubChem BioAssay AID1963863 (Molecular Pharmacology Branch, DTP, NCI, 2024)

Tested on: 931267-113-T-J1-PDC KRAS spheroid with HUVEC/MSC, viability
Assay: Anticancer human tumor 931267-113-T-J1-PDC patient-derived colon adenocarcinoma cell line growth inhibition [KRAS2]
Settings: for IC50: curve of first compound; for viability, T/C: stronger effect = lower value
Excerpt: Multicellular complex tumor spheroid response to RAS pathway inhibitors in combination with a targeted agents in patient-derived cell lines with oncogenic KRAS variants from multiple cancer types
A high-throughput screen of multi-cell type tumor spheroids was designed to identify active combinations of targeted small molecules and KRAS pathway inhibitors. Complex spheroids include a stromal component modeled by human endothelial cells (HUVEC) and fibroblasts modeled by human mesenchymal stem cells (MSCs). The concentration ranges selected for each drug and investigational agent were based upon clinically achievable concentrations if the clinical Cmax of the agent was known.
Compounds. The drugs and investigational agents: BI-3406 (NSC825286), BAY-293 (NSC824723), batoprotafib (TNO155; NSC825523), sotorasib (AMG 510; NSC818433), MRTX1257 (NSC819558), elimusertib (BAY 1895344; NSC800525), molibresib (GSK525762; NSC774829), temuterkib (LY3214996; NSC803410), venetoclax (NSC766270), alisertib (NSC759677), olaparib (NSC753686), talazoparib (NSC767125), erdafitinib (NSC781556), ipatasertib (NSC767898), cabozantinib (NSC761068), nintedanib (NSC756659), abemaciclib (NSC768073), docetaxel (NSC628503), trametinib (NSC758246), and sapanisertib (NSC764658) were obtained from the National Cancer Institute (NCI) Developmental Therapeutics Program Chemical Repository. The FDA-approved anticancer drug set is available from the Developmental Therapeutics Program. […] The stock solutions were prepared in dimethyl sulfoxide (DMSO, Sigma-Aldrich, St. Louis, MO, cat. D2650) at 800-fold the tested concentration and stored at -70 degrees C prior to their use. All drugs and investigational agents were tested over a range starting from a high concentration at or near the clinical Cmax and decreasing in half-log increments. If the clinical Cmax for an agent had not been determined, the highest concentration tested was 10 microM.
Cell Culture. All cells were maintained in an incubator at 37 degrees C and 5% CO2 with 95% humidity. The PDC lines were cultured according to standard operating procedures established by the NCI PDMR (https://pdmr.cancer.gov/sops/default.htm). Briefly, all PDCs were thawed and cultured in Matrigel-coated flasks prepared with a working solution of 1X Ham's F-12 nutrient mix, without supplementation (Invitrogen, Waltham, MA, cat. 11765054), 100 U/mL penicillin-streptomycin (Invitrogen, cat. 15140122), and 2.5% Matrigel (Corning Inc., Corning, NY, cat. 354248) for the first three passages. All PDCs were cultured in complete DMEM/F-12 media containing advanced DMEM/F-12 (Invitrogen, cat. 12634028), 4.9% defined fetal bovine serum, heat inactivated (HyClone Laboratories Inc., Logan, UT, cat. SH30070.03HI), 389 ng/mL hydrocortisone (Sigma-Aldrich, cat. H4001), 9.7 ng/mL human EGF recombinant protein (Invitrogen, cat. PHG0313), 23.4 microg/mL adenine (Sigma-Aldrich, cat. A2786), 97.3 U/mL penicillin-streptomycin (Invitrogen, cat. 15140122), 1.9 mM L-glutamine (Invitrogen, cat. 25030081), and 9.7 microM Y-27632 dihydrochloride (Tocris Bioscience, Bristol, United Kingdom, cat. 1254). The PDCs were cultured in complete DMEM/F12 media without 9.7 microM Y-27632 dihydrochloride for at least two passages prior to the screen. The established cell line HOP-62 was cultured in RPMI 1640 medium, HEPES (Invitrogen, cat. 22400105) with 10% defined fetal bovine serum (HyClone Laboratories Inc., cat. SH30070.03) and 2 mM L-glutamine (Invitrogen, cat. 25030081). The pooled donor HUVEC were cultured in endothelial cell growth medium 2 (PromoCell, Heidelberg, Germany, cat. C-22011) and the hMSC were cultured in mesenchymal stem cell growth medium 2 (PromoCell, cat. C-28009). For all experiments, HUVEC and hMSC were used at passages </=5, while the malignant cell lines were used at passages </=15. […]

[1] = second compound 0.1 µM, first compound 0.0316 µM
[2] = second compound 0.1 µM, first compound 0.1 µM
[3] = second compound 0.1 µM, first compound 0.316 µM
[4] = second compound 0.1 µM, first compound 1 µM
[5] = second compound 0.316 µM, first compound 0.0316 µM
[6] = second compound 0.316 µM, first compound 0.1 µM
[7] = second compound 0.316 µM, first compound 0.316 µM
[8] = second compound 0.316 µM, first compound 1 µM
[9] = second compound 1 µM, first compound 0.0316 µM
[10] = second compound 1 µM, first compound 0.1 µM
[11] = second compound 1 µM, first compound 0.316 µM
[12] = second compound 1 µM, first compound 1 µM
[13] = second compound 3.16 µM, first compound 0.0316 µM
[14] = second compound 3.16 µM, first compound 0.1 µM
[15] = second compound 3.16 µM, first compound 0.316 µM
[16] = second compound 3.16 µM, first compound 1 µM
[17] = second compound 10 µM, first compound 0.0316 µM
[18] = second compound 10 µM, first compound 0.1 µM
[19] = second compound 0.1 µM, first compound 0.00316 µM
[20] = second compound 0.1 µM, first compound 0.01 µM
[21] = second compound 0.316 µM, first compound 0.00316 µM
[22] = second compound 0.316 µM, first compound 0.01 µM
[23] = second compound 1 µM, first compound 0.00316 µM
[24] = second compound 1 µM, first compound 0.01 µM
[25] = second compound 3.16 µM, first compound 0.00316 µM
[26] = second compound 3.16 µM, first compound 0.01 µM
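Also: compound exposure lasted 7 days before the readout.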
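For viability, T/C in this document: 100% = DMSO vehicle control viability.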

For `CCNC(=O)CC1N=C(c2ccc(Cl)cc2)c2cc(OC)ccc2-n2c(C)nnc21` (stereo not given) + CC1OCC2(CCN(c3cnc(Sc4ccnc(N)c4Cl)c(N)n3)CC2)C1N, the IC50 (second compound 0.1 µM) was 536 nM, the IC50 (second compound 0.316 µM) was 316 nM and the IC50 (second compound 1 µM) was 468 nM. For the same molecule, the IC50 (second compound 3.16 µM) was 586 nM, the IC50 (second compound 10 µM) was 563 nM and the viability, T/C [1] was 80.7%. For the same molecule, the viability, T/C [2] was 90.4%, the viability, T/C [3] was 51.9% and the viability, T/C [4] was 46.6%. It also gave a viability, T/C (second compound 0.1 µM, first compound 3.16 µM) of 30.4%, a viability, T/C (second compound 0.1 µM, first compound 10 µM) of 27.6% and a viability, T/C [5] of 80.4%. For the same molecule, the viability, T/C [6] was 60.5%, the viability, T/C [7] was 58.7% and the viability, T/C [8] was 27.4%. The viability, T/C (second compound 0.316 µM, first compound 3.16 µM) was 34.6%, the viability, T/C (second compound 0.316 µM, first compound 10 µM) was 21.6% and the viability, T/C [9] was 69.7%. It also gave a viability, T/C [10] of 68.5%, a viability, T/C [11] of 51.5% and a viability, T/C [12] of 40.7%. For the same molecule, the viability, T/C (second compound 1 µM, first compound 3.16 µM) was 31%, the viability, T/C (second compound 1 µM, first compound 10 µM) was 15.8% and the viability, T/C [13] was 78.1%. It also gave a viability, T/C [14] of 59.7%, a viability, T/C [15] of 70.8% and a viability, T/C [16] of 33%. It also gave a viability, T/C (second compound 3.16 µM, first compound 3.16 µM) of 22.1%, a viability, T/C (second compound 3.16 µM, first compound 10 µM) of 13.4% and a viability, T/C [17] of 87.2%. The viability, T/C [18] was 73.4%, the viability, T/C (second compound 10 µM, first compound 0.316 µM) was 60.3% and the viability, T/C (second compound 10 µM, first compound 1 µM) was 40.5%. For the same molecule, the viability, T/C (second compound 10 µM, first compound 3.16 µM) was 25.8% and the viability, T/C (second compound 10 µM, first compound 10 µM) was 14.2%.
For `CCN1CCN(Cc2ccc(Nc3ncc(F)c(-c4cc(F)c5nc(C)n(C(C)C)c5c4)n3)nc2)CC1` + C=CC(=O)N1CCN(c2nc(OCC3CCCN3C)nc3c2CCN(c2cccc4cccc(C)c24)C3)CC1CC#N, the IC50 (second compound 0.0316 µM) was > 1000 nM, the IC50 (second compound 0.1 µM) was 549 nM and the IC50 (second compound 0.316 µM) was > 1000 nM. The IC50 (second compound 1 µM) was 734 nM, the IC50 (second compound 3.16 µM) was < 3.16 nM and the viability, T/C (second compound 0.0316 µM, first compound 0.00316 µM) was 108%. The viability, T/C (second compound 0.0316 µM, first compound 0.01 µM) was 86%, the viability, T/C (second compound 0.0316 µM, first compound 0.0316 µM) was 70.7% and the viability, T/C (second compound 0.0316 µM, first compound 0.1 µM) was 67.8%. It also gave a viability, T/C (second compound 0.0316 µM, first compound 0.316 µM) of 65.7%, a viability, T/C (second compound 0.0316 µM, first compound 1 µM) of 54% and a viability, T/C [19] of 83.8%. The viability, T/C [20] was 72.2%, the viability, T/C [1] was 68.2% and the viability, T/C [2] was 67.4%. It also gave a viability, T/C [3] of 61.8%, a viability, T/C [4] of 39.7% and a viability, T/C [21] of 93.7%. For the same molecule, the viability, T/C [22] was 84.2%, the viability, T/C [5] was 64.3% and the viability, T/C [6] was 60%. It also gave a viability, T/C [7] of 64.6%, a viability, T/C [8] of 48.6% and a viability, T/C [23] of 73.8%. The viability, T/C [24] was 74.2%, the viability, T/C [9] was 77.3% and the viability, T/C [10] was 82.4%. For the same molecule, the viability, T/C [11] was 61.2%, the viability, T/C [12] was 45.9% and the viability, T/C [25] was 0.66%. The viability, T/C [26] was 2.55%, the viability, T/C [13] was 0.2% and the viability, T/C [14] was 0.23%. It also gave a viability, T/C [15] of 0.3% and a viability, T/C [16] of 0.21%.
With `CC(C)n1nc(-c2ccc3oc(N)nc3c2)c2c(N)ncnc21` + COc1cc2nc(C)nc(NC(C)c3cc(N)cc(C(F)(F)F)c3)c2cc1OC1CCOC1 the IC50 (second compound 0.1 µM) was 9.26 nM, the IC50 (second compound 0.316 µM) was 7.45 nM and the IC50 (second compound 1 µM) was 9.33 nM. The IC50 (second compound 3.16 µM) was 6.56 nM, the IC50 (second compound 10 µM) was < 0.316 nM and the viability, T/C (second compound 0.1 µM, first compound 0.000316 µM) was 109%. The viability, T/C (second compound 0.1 µM, first compound 0.001 µM) was 92.5%, the viability, T/C [19] was 69% and the viability, T/C [20] was 50.5%. For the same molecule, the viability, T/C [1] was 31.1%, the viability, T/C [2] was 24.9% and the viability, T/C (second compound 0.316 µM, first compound 0.000316 µM) was 108%. It also gave a viability, T/C (second compound 0.316 µM, first compound 0.001 µM) of 91.7%, a viability, T/C [21] of 77.3% and a viability, T/C [22] of 39.1%. For the same molecule, the viability, T/C [5] was 28.1%, the viability, T/C [6] was 24.2% and the viability, T/C (second compound 1 µM, first compound 0.000316 µM) was 84.5%. The viability, T/C (second compound 1 µM, first compound 0.001 µM) was 101%, the viability, T/C [23] was 65.9% and the viability, T/C [24] was 51.7%. It also gave a viability, T/C [9] of 30.9%, a viability, T/C [10] of 23.9% and a viability, T/C (second compound 3.16 µM, first compound 0.000316 µM) of 79%. The viability, T/C (second compound 3.16 µM, first compound 0.001 µM) was 75.8%, the viability, T/C [25] was 63.7% and the viability, T/C [26] was 41.9%. The viability, T/C [13] was 28.6%, the viability, T/C [14] was 23.6% and the viability, T/C (second compound 10 µM, first compound 0.000316 µM) was 1.37%. It also gave a viability, T/C (second compound 10 µM, first compound 0.001 µM) of 1.1%, a viability, T/C (second compound 10 µM, first compound 0.00316 µM) of 6.43% and a viability, T/C (second compound 10 µM, first compound 0.01 µM) of 3.9%. It also gave a viability, T/C [17] of 2.74% and a viability, T/C [18] of 1.79%.
